pIC50: −log10 of the molar value. Where “and” joins values, the source holds several entries; their conditions need not be identical. Equal entries are not always repeated.
Test system: 324938-238-R-J1-PDC complex spheroid viability
Assay: Anticancer human tumor 324938-238-R-J1-PDC patient-derived bladder carcinoma cell line growth inhibition
Settings: for viability, T/C: stronger effect = lower value
Text: Multicellular complex tumor spheroid response to LSD1 Inhibitor Iadademstat in combination with a variety of drugs and investigational agents in selected tumor cell lines
The current study was undertaken to assess response to LSD1 inhibitors in combination with standard-of-care drugs and investigational agents in solid tumor complex spheroid models as well as in the K-562 leukemia. Complex spheroids include a stromal component modeled by human endothelial cells (HUVEC) and fibroblasts modeled by human mesenchymal stem cells (MSCs). The concentration ranges selected for each drug and investigational agent were based upon clinically achievable concentrations if the clinical Cmax of the agent was known.
Compounds. The drugs and investigational agents used in this study are listed on Table 1. All of the agents used, including staurosporine (NSC755774) and gemcitabine (NSC613327), were obtained from the Developmental Therapeutics Program, NCI. FDA-approved anticancer drugs are available from the NCI at http://dtp.nci.nih.gov/branches/dscb/oncology_drugset_explanation.html. Drugs and investigational agents were >95% pure by proton nuclear magnetic resonance (NMR) and liquid chromatography/mass spectrometry (LC/MS). Stock solutions were prepared at 400x in DMSO, stored at -70 degrees C, and diluted in fresh medium prior to their use. The final concentration of DMSO in cell culture wells never exceeded 0.25% (v/v). The FDA-approved anticancer drug set is available from the Developmental Therapeutics Program at https://dtp.cancer.gov/organization/dscb/obtaining/available_plates.htm. All drugs and investigational agents were tested over a range starting from a high concentration at or near the clinical Cmax and decreasing in half-log increments. If the clinical Cmax for an agent had not been determined, the highest concentration tested was 10 microM.
Cell Lines. The patient-derived cancer cell (PDC) lines: 292921-168-R-J2-PDC, K24384-001-R-PDC, and 521955-158-R2-J5-PDC pancreatic carcinomas, 556581-035-R-J1 ovarian carcinoma, 324938-238-R-J1-PDC, 855422-203-R-J1-PDC and 883617-216-R-J1-PDC urothelial bladder carcinomas, 743489-274-T-PDC renal cell carcinoma, 138582-R-J1 Merkel cell tumor, K60290-347-R-J1 and K57222-313-R-J1-PDC glioblastomas, 653999-131-R-J2-PDC, LG0703-F948-PDC, and 349418-098-R-PDC non-small cell lung carcinomas, 885512-296-R-J2-PDC, 171881-019-R-J1-PDC breast carcinomas and 186277-243-T-J2-PDC and 233499-124-R-J2-PDC colon carcinomas were obtained from the NCI Patient-Derived Models Repository (PDMR, https://pdmr.cancer.gov). The established cell lines NCI/ADR-RES (RRID:CVCL_14520 and OVCAR-5 (RRID:CVCL_1628) ovarian carcinomas, 786-O (RRID:CVCL_1051) and A498 (RRID:CVCL_A498) renal cell carcinoma, NCI-H211 (ATCC, cat. CRL-5824; RRID:CVCL_1529), NCI-H196 (ATCC, cat. CRL-5823, RRID:CVCL_1509), SW 1271 (ATCC, cat. CRL-2177, RRID:CVCL_1716) and NCI-H1876 (ATCC, cat. CRL-5902, RRID:CVCL_1503) small cell lung carcinomas, MDA-MB-231 (RRID:CVCL_0062) and MDA-MB-468 (RRID:CVCL_0419)breast carcinomas (10-12). Pooled donor human umbilical vein endothelial cells (HUVEC, Lonza, cat. CC-2519) and human mesenchymal stem cells (hMSC, Lonza, cat. PT-2501) were purchased from Lonza (Walkersville, MD).
Cell Culture. All cells were maintained in an incubator at 37 degrees C and 5% CO2 with 95% humidity. The PDC lines were cultured according to standard operating procedures established by the NCI PDMR (https://pdmr.cancer.gov). Briefly all PDCs were thawed and cultured in Matrigel-coated flasks prepared with a working solution of 1X Ham's F-12 nutrient mix, without supplementation (Invitrogen, Waltham, MA, cat. 11765054), 100 U/mL penicillin-streptomycin (Invitrogen, cat. 15140122), and 2.5% Matrigel (Corning Inc., Corning, NY, cat. 354248) for the first three passages. […]

[1] = curve of first compound, second compound 0.1 µM
[2] = curve of first compound, second compound 0.316 µM
[3] = curve of first compound, second compound 1 µM
[4] = curve of first compound, second compound 3.16 µM
[5] = curve of first compound, second compound 10 µM
[6] = second compound 0.1 µM, first compound 0.00949 µM
[7] = second compound 0.1 µM, first compound 0.03 µM
[8] = second compound 0.1 µM, first compound 0.0949 µM
[9] = second compound 0.1 µM, first compound 0.3 µM
[10] = second compound 0.1 µM, first compound 0.949 µM
[11] = second compound 0.1 µM, first compound 3 µM
[12] = second compound 0.316 µM, first compound 0.00949 µM
[13] = second compound 0.316 µM, first compound 0.03 µM
[14] = second compound 0.316 µM, first compound 0.0949 µM
[15] = second compound 0.316 µM, first compound 0.3 µM
[16] = second compound 0.316 µM, first compound 0.949 µM
[17] = second compound 0.316 µM, first compound 3 µM
[18] = second compound 1 µM, first compound 0.00949 µM
[19] = second compound 1 µM, first compound 0.03 µM
[20] = second compound 1 µM, first compound 0.0949 µM
[21] = second compound 1 µM, first compound 0.3 µM
[22] = second compound 1 µM, first compound 0.949 µM
[23] = second compound 1 µM, first compound 3 µM
[24] = second compound 3.16 µM, first compound 0.00949 µM
[25] = second compound 3.16 µM, first compound 0.03 µM
[26] = second compound 3.16 µM, first compound 0.0949 µM
[27] = second compound 3.16 µM, first compound 0.3 µM
[28] = second compound 3.16 µM, first compound 0.949 µM
[29] = second compound 3.16 µM, first compound 3 µM
[30] = second compound 10 µM, first compound 0.00949 µM
[31] = second compound 10 µM, first compound 0.03 µM
[32] = second compound 10 µM, first compound 0.0949 µM
[33] = second compound 10 µM, first compound 0.3 µM
[34] = second compound 10 µM, first compound 0.949 µM
[35] = second compound 10 µM, first compound 3 µM
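Note: spheroids also contain HUVEC and human MSCs and agents combined with iadademstat; spheroids exposed to agents for 7 days before readout.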

SMILES | pIC50 [1] | pIC50 [2] | pIC50 [3] | pIC50 [4] | pIC50 [5] | viability, T/C [6] [%] | viability, T/C [7] [%] | viability, T/C [8] [%] | viability, T/C [9] [%] | viability, T/C [12] [%] | viability, T/C [13] [%] | viability, T/C [14] [%] | viability, T/C [15] [%] | viability, T/C [18] [%] | viability, T/C [19] [%] | viability, T/C [20] [%] | viability, T/C [21] [%] | viability, T/C [24] [%] | viability, T/C [25] [%] | viability, T/C [26] [%] | also measured
CCN(c1cc(-c2ccc(CN3CCOCC3)cc2)cc(C(=O)NCc2c(C)cc(C)[nH]c2=O)c1C)C1CCOCC1 + NC1CCC(NC2CC2c2ccccc2)CC1 | < 5.52 | < 5.52 | < 5.52 | < 5.52 | < 5.52 | 76.4 | 75.4 | 76.7 | 77.6 | 74.5 | 83.1 | 70.5 | 74.8 | 74.5 | 74.7 | 71.5 | 81 | 67.8 | 74.7 | 71.5 | viability, T/C [10]: 75.8%; viability, T/C [11]: 77.6%; viability, T/C [16]: 80.4%; viability, T/C [17]: 75.1%; viability, T/C [22]: 72.8%; viability, T/C [23]: 81.7%; viability, T/C [27]: 74%; viability, T/C [28]: 72.9%; viability, T/C [29]: 69%; viability, T/C [30]: 72.1%; viability, T/C [31]: 68.7%; viability, T/C [32]: 76.5%; viability, T/C [33]: 70.5%; viability, T/C [34]: 66.4%; viability, T/C [35]: 74.2%
Nc1ccn(C2OC(CO)C(O)C2(F)F)c(=O)n1 (configuration not stated) | – | – | – | – | – | – | – | – | – | – | – | – | – | – | – | – | – | – | – | – | viability, T/C (compound 0.000949 µM): 11.4% and 15.4%; viability, T/C (compound 0.003 µM): 8.21% and 9.09%; viability, T/C (compound 0.00949 µM): 7.58% and 8.65%; viability, T/C (compound 0.03 µM): 6.97% and 8.11%; viability, T/C (compound 0.0949 µM): 5.95% and 6.14%; viability, T/C (compound 0.3 µM): 5.04% and 6.97%; pIC50 (curve of compound): > 9.02
Nc1ccn(C2OC(CO)C(O)C2(F)F)c(=O)n1 (configuration not stated) + NC1CCC(NC2CC2c2ccccc2)CC1 | > 9.02 | > 9.02 | > 9.02 | > 9.02 | > 9.02 | 7.38 | 6.53 | 5.05 | 5.23 | 6.91 | 7.37 | 5.53 | 5.05 | 8.5 | 7.08 | 5.53 | 5.33 | 9.28 | 7.53 | 5.27 | viability, T/C (second compound 0.1 µM, first compound 0.000949 µM): 7.42%; viability, T/C (second compound 0.1 µM, first compound 0.003 µM): 7.71%; viability, T/C (second compound 0.316 µM, first compound 0.000949 µM): 10.3%; viability, T/C (second compound 0.316 µM, first compound 0.003 µM): 7.95%; viability, T/C (second compound 1 µM, first compound 0.000949 µM): 9.63%; viability, T/C (second compound 1 µM, first compound 0.003 µM): 9.08%; viability, T/C (second compound 3.16 µM, first compound 0.000949 µM): 10.8%; viability, T/C (second compound 3.16 µM, first compound 0.003 µM): 8.82%; viability, T/C [27]: 5.32%; viability, T/C (second compound 10 µM, first compound 0.000949 µM): 11.8%; viability, T/C (second compound 10 µM, first compound 0.003 µM): 9.1%; viability, T/C [30]: 9.36%; viability, T/C [31]: 8.14%; viability, T/C [32]: 4.93%; viability, T/C [33]: 5.8%
COc1cc(C2c3cc4c(cc3C(OC3OC5COC(C)OC5C(O)C3O)C3COC(=O)C23)OCO4)cc(OC)c1O (configuration not stated) + NC1CCC(NC2CC2c2ccccc2)CC1 | 7.25 | 7.26 | 7.29 | 7.26 | 7.08 | 83.9 | 67 | 35.3 | 22.2 | 84.9 | 64.9 | 35.3 | 23.4 | 76.4 | 61.6 | 36.8 | 22.6 | 71.8 | 64 | 36.1 | viability, T/C [10]: 21.9%; viability, T/C [11]: 9.11%; viability, T/C [16]: 19%; viability, T/C [17]: 10%; viability, T/C [22]: 22.1%; viability, T/C [23]: 10.1%; viability, T/C [27]: 27.1%; viability, T/C [28]: 21.3%; viability, T/C [29]: 12.1%; viability, T/C [30]: 67.4%; viability, T/C [31]: 67.9%; viability, T/C [32]: 47.1%; viability, T/C [33]: 23.8%; viability, T/C [34]: 18.6%; viability, T/C [35]: 13.2%
